The subject of series [1] is mice. Kind of series: Tail-flick test (radiant heat) in mice. The class given is in vivo. As to conditions: 50 mg/kg; for analgesic action in tail-flick test: 30 and 60 min after administration. The text has this: (§1) Two tests, “tail-flick” and “hot plate,” were used to evaluate the analgesic action of peptides administered intraperitoneally and intra-gastrically.
The pain stimulus was applied locally to the tail as radiant heat using a Tail Flick Analgesia Meter (Hugo Sachs Elektronik, Germany). A tail-flick latent period of 6 s was considered the maximum time for applying the stimulus (Equation (1): tmax—6 s, maximal duration of pain stimulus).
(§2) The control groups consisted of mice injected with solvent. The tested substances were administered to the animals intraperitoneally and intragastrically in a volume of 0.1 mL of saline per 10 g of body weight. The pain response threshold was measured before and 30 and 60 min after administration.
(§3) In both tests, the final indicator of analgesic action was defined as a 50% or more significant effect on the number of animals in each experimental group, expressed as a percentage of the total number of animals in that group. […]
A general note: In hot-plate and tail-flick tests a longer latency is read as antinociception.

Series [2] deals with mice. Kind of series: Hot plate test in mice. The class given is in vivo. To be noted: 50 mg/kg, 30 and 60 min after administration. How it is done: as §1, §2
The “hot plate” test evaluates the pain reaction to thermal irritation of the mouse paw. The Hot Plate Model 7280 (Ugo Basile S.R.L., Gemonio, Italy) analgesimeter was used for this test. The maximal duration of the pain stimulus (thermal irritation) was set at 60 s.
as §3

In series [3] the test system is isolated preparations of guinea pig ileal smooth muscle. Kind of series: Opioid activity on electrically stimulated isolated guinea pig ileum (GPI). The class given is cell-based. As to conditions: inhibition of electrically stimulated contractions of GPI segment, Krebs solution 34 °C, 10^−9 to 10^−6 M, tests in duplicate. The text has this:
Dermorphin analogs have been tested using the standard guinea pig ileum (GPI) model, The GPI is rich in µ-opioid receptors. Ten peptides were suppressed via electrical stimulation contractions of segment GPI in the studied concentration range (10^−9 to 10^−6 M) (Table 1).
The opioid receptor antagonist naloxone (10^−6 M) prevented or weakened the action of the compounds under investigation, confirming the opioid mechanism of their action. […] Thus, new dermorphin analogs can be agonists of µ-type opioid receptors. However, this needs to be verified using molecular modeling methods in further research. Attila M. et al. (1993) investigated the potential binding of 16 dermorphin analogs to µ and δ opioid receptors in brain cells.
The peripheral opioid activity of the peptides was assessed according to known methodology. A segment of guinea pig ileum (approximately 1 cm long) was placed into a 10 mL organ bath containing Krebs solution at 34 °C. Single pulses stimulated the segment of the ileum (1 g) with a duration of 1 ms and a frequency of 0.1 Hz at 80 V. Contractions were recorded in isometric mode using a K30 sensor (Hugo Sachs Elektronic KG, March, Germany).
All tests for each molecule were performed in duplicate. Based on the data obtained, dose-effect curves were plotted, and the IC50 index was determined as the concentration of the substance that causes 50% of the maximal inhibitory effect.

Series [4] concerns rats. Kind of series: Water immersion tail-flick test in rats. The class given is in vivo, Wistar rats. To be noted: for duration of analgesic effect: intraperitoneal, 5 mg/kg, water tail-flick 56 °C.
For series [5], the system named is µ-opioid receptors. Set-up: method as in PMID 3033543. To be noted: cited from earlier work.
Series [6] deals with δ-opioid receptors. Set-up: method as in PMID 3033543. To be noted: rat brain; cited from earlier work.
The subject of series [7] is κ receptors. Set-up: method as in PMID 3033543. To be noted: rat brain; cited from earlier work.
The subject of series [8] is rats. Kind of series: Open field test in rats with intranasal administration. The class given is in vivo, Wistar rats. As to conditions: n = 7, open field 2 min. How it is done:
The experiments were conducted in an automated “open-field” chamber that registered and processed computer data. They were conducted in two replicates on 64 male Wistar rats weighing 240–260 g. The “open-field” is a round arena with a diameter of 80 cm, lined with three concentric circles and eight diameters. During the experiment, the rat was placed in the center of the arena. Motor activity (measured as the number of segments passed), the number of departures from the arena wall, vertical activity (the number of rises on the hind legs), and the number of touches of the muzzle with the paws (washing) were visually assessed for two minutes. A 500-watt household electric bell and a 15-watt red lamp were placed 80 cm above the arena. The study was conducted in silence and under the light of the red lamp.
Animals were divided into groups: untrained intact animals and trained experimental animals. All animals were divided into five groups: • In the intact group, animals without training were injected with 0.05 mL of physiological solution one minute before being placed in the “open field.” (n = 33). • The control group consisted of animals adapted after a 5-day administration of 0.5 mL of saline (n = 10). • Single drug action at a 15 μg/kg dose was administered to adapted animals (n = 7). • Adapted animals (n = 7) received a 50 μg/kg dose of a single drug action. • Single drug action at a 150 μg/kg dose was administered to adapted animals (n = 7).

Setting [9] is: intracerebroventricular, 1.0 μg/kg.

Entries after “also recorded” stand apart in the source; their conditions may differ. Square brackets hold non-standard residues; d marks the D form. Ends that are not written are not given here.

Turning to `COc1cccc(C2(O)CCCCC2CN(C)C)c1` (stereo not shown) [tramadol, reference compound], in series [1] (intragastric), the “analgesic action in tail-flick test” value was “active”. Moreover, the “analgesic action in hot plate test” value in series [2] (intragastric) was “no significant analgesic effect”.
For the compound “Cyclo-[L-Lys(H-Tyr-D-Ala-Phe-D-Ala)-L-Glu(OH)] (head to tail) [D6]”, in series [3], the “Index IC50” value came to 0.57 µM.
Still for that read-out and setting: the result for “Cyclo-[L-Lys(H-Tyr-D-Ala-Phe-D-Ala)-L-Glu-(L-TrpOMe)] (head to tail) [D7]” reads 2 µM.
For the compound “Cyclo-[L-Lys(H-Tyr-D-Ala-Phe-D-Ala-Tyr-Pro-Ser)-L-Glu(L-Trp-NH2)] (head to tail) [D3]”, in series [3], the “Index IC50” value was found to be 0.033 µM. The “analgesic action in tail-flick test” value is “active after 30 and 60 min” in series [1] (intragastric); “high analgesic activity” in series [1] (intraperitoneal). Further, in series [1] (intraperitoneal), the “duration of activity in tail-flick test” value was 60 min. Besides, the “analgesic action in hot plate test” value in series [2] (intragastric) is reported as “no significant analgesic effect”; in series [2] (intraperitoneal), “highest activity for 60 min; also recorded: active as tramadol”.
Turning to “Cyclo-[L-Lys(H-Tyr-D-Ala-Phe-D-Ala-Tyr-Pro-Ser)-L-Glu(L-Trp-OH)] (head to tail) [D4]”, the “Index IC50” value in series [3] is 0.011 µM. For the same compound, the “analgesic action in tail-flick test” value in series [1] (intragastric) is “active after 30 and 60 min”; in series [1] (intraperitoneal), “high analgesic activity”. The “analgesic action in hot plate test” value was “no significant analgesic effect” in series [2] (intragastric) and “moderately active; also recorded: active as tramadol” in series [2] (intraperitoneal).
In the case of “H-RY[dA]F[dA]-OH (SMILES C[C@@H](NC(=O)[C@H](Cc1ccccc1)NC(=O)[C@@H](C)NC(=O)[C@H](Cc1ccc(O)cc1)NC(=O)[C@@H](N)CCCNC(=N)N)C(=O)O) [D9]”, in series [3], the “Index IC50” value turned out to be 1 µM.
Take “H-Tyr-D-Ala-Phe-Gly-Tyr-Pro-Ser-NH2 [D1, reference compound]”: the “Index IC50” value in series [3] is 0.0025 µM. Also, the “duration of analgesic effect” value in series [4] is on record as “approximately 1 h”. The “analgesic action in tail-flick test” value in series [1] (intragastric) is “did not exhibit analgesic action”. For the same compound, the “duration of activity in tail-flick test” value in series [1] (intraperitoneal) is on record as 60 min. The “analgesic action in hot plate test” value in series [2] (intragastric) was “did not exhibit analgesic action”; in series [2] (intraperitoneal), “active as tramadol”. Moreover, in series [5], the “affinity for µ-opioid receptors” value is recorded as “very high affinity”. In addition, the “affinity for δ-opioid receptors” value in series [6] is given as “low affinity”. In addition, the “affinity for κ receptors” value in series [7] was “low affinity”.
Take “H-Y[dA]F[dA]-OH (SMILES C[C@@H](NC(=O)[C@H](Cc1ccccc1)NC(=O)[C@@H](C)NC(=O)[C@@H](N)Cc1ccc(O)cc1)C(=O)O) [D10, reference compound]”: in series [3], the “Index IC50” value was determined as 1 µM.
Consider “H-Y[dA]F[dA]YPS-NHMe (SMILES CNC(=O)[C@H](CO)NC(=O)[C@@H]1CCCN1C(=O)[C@H](Cc1ccc(O)cc1)NC(=O)[C@@H](C)NC(=O)[C@H](Cc1ccccc1)NC(=O)[C@@H](C)NC(=O)[C@@H](N)Cc1ccc(O)cc1) [D2]”, for which the “Index IC50” value in series [3] is 0.0095 µM. Besides, in series [4] (setting [9]), the analgesic effect result was “potent analgesia”; the observed side effects entry is “severe muscle tension, and numbness”. Besides, the observed side effects entry in series [4] (intracerebroventricular, 2.5 μg/kg) was “complete immobility and catatonic effects”. Besides, in series [4] (intracerebroventricular, 2.5 μg/kg, n = 7), the “analgesic effect (A)” value was 100%. Further, the observed side effects result in series [4] (intranasal, 0.5 µg/kg) is given as “short-term state of stupor”. For the same compound, in series [4] (intranasal, 1.0 µg/kg), the analgesic effect result is on record as “maximum long-lasting analgesia” and the observed side effects entry is “complete stupor”. For the same compound, in series [4], the “duration of analgesic effect” value was “up to 5 h”. In addition, in series [8] (15 µg/kg), the Defecation is given as 0.92 ± 0.26, the Dive is given as 6.17 ± 1.63, the Grooming came to 1.58 ± 0.42 and the Path is on record as 23.83 ± 7.16. In series [8] (15 µg/kg), this compound registered a Stand of 8.83 ± 3.03 and a Urination of 0.25 ± 0.13. In series [8] (50 µg/kg), this compound registered a Defecation of 1.10 ± 0.18, a Dive of 3.40 ± 0.76, a Grooming of 0.90 ± 0.46 and a Path of 21.80 ± 6.16. Also, in series [8] (50 µg/kg), the Stand is 4.50 ± 1.35 and the Urination worked out at 0.20 ± 0.13. In series [8] (150 µg/kg), this compound yielded a Defecation of 0.60 ± 0.22, a Dive of 2.90 ± 0.99, a Grooming of 1.00 ± 0.39 and a Path of 14.80 ± 3.80. For the same compound, in series [8] (150 µg/kg), the Stand was 4.70 ± 1.45 and the Urination came to 0.10 ± 0.10. For the same compound, the “analgesic action in tail-flick test” value in series [1] (intragastric) is “active in the “tail-flick” test only 30 min after administration”. Also, the “analgesic action in hot plate test” value in series [2] (intragastric) is reported as “no significant analgesic effect”. In addition, the “analgesic action in hot plate test” value in series [2] (intraperitoneal) is “significant activity only at 30 min; also recorded: active only for 30 min”.
With “H-Y[dA]F[dA]YPS-OH (SMILES C[C@@H](NC(=O)[C@H](Cc1ccccc1)NC(=O)[C@@H](C)NC(=O)[C@@H](N)Cc1ccc(O)cc1)C(=O)N[C@@H](Cc1ccc(O)cc1)C(=O)N1CCC[C@H]1C(=O)N[C@@H](CO)C(=O)O) [D5]”, in series [3], the “Index IC50” value came to 0.76 µM.
The same measure, in the same setting: the result for “RY[dA]FG-OH (N-terminus assumed; SMILES C[C@@H](NC(=O)[C@H](Cc1ccc(O)cc1)NC(=O)[C@@H](N)CCCNC(=N)N)C(=O)N[C@@H](Cc1ccccc1)C(=O)NCC(=O)O) [D8]” reads 3 µM.

The record behind these values is publication PMC12429696, “The Neurotropic Activity of Novel Dermorphin Analogs Active in Systemic and Noninvasive Administration” (International Journal of Molecular Sciences, 2025).
